Measurements taken from article PMC5224920, “Assessing the mechanism and therapeutic potential of modulators of the human Mediator complex-associated protein kinases” (eLife, 2016).

System: 12 single or co-culture in vitro tissue models of primary cells
Assay: Culture/co-culture cell model panel, extracellular biomarkers (DiscoveRx); as to CCL2/MCP-1: reference of the scale not given here; as to CD141/Thrombomodulin: reference of the scale not given here; as to CD142/Tissue Factor: reference of the scale not given here; as to CD38: reference of the scale not given here; as to CD40: reference of the scale not given here; as to CD69: reference of the scale not given here; as to CXCL8/IL-8: reference of the scale not given here; as to CXCL9/MIG: reference of the scale not given here; as to IL-1alpha: reference of the scale not given here; as to M-CSF: reference of the scale not given here; as to PBMC Cytotoxicity: reference of the scale not given here; as to Proliferation: reference of the scale not given here; as to SRB: reference of the scale not given here; as to sPGE2: reference of the scale not given here; as to sTNF-alpha: reference of the scale not given here
Type: cell-based, human

Cc1n[nH]c2ncc(C(=O)N3CCC[C@H]3c3ccc(Cl)cc3)cc12 [CMPD4]
IL-1alpha (LPS Huvec+PBMC, 1.11E3 nM): 0.016
M-CSF (LPS Huvec+PBMC, 1.11E3 nM): 0.016
SRB (LPS Huvec+PBMC, 1.11E3 nM): -0.126
sPGE2 (LPS Huvec+PBMC, 1.11E3 nM): 0.239
sTNF-alpha (LPS Huvec+PBMC, 1.11E3 nM): 0.133
CCL2/MCP-1 (LPS Huvec+PBMC, 1.23E2 nM): -0.026
CD40 (LPS Huvec+PBMC, 1.23E2 nM): -0.152
CD62E/E-Selectin (LPS Huvec+PBMC, 1.23E2 nM): 0.006
CD69 (LPS Huvec+PBMC, 1.23E2 nM): 0.00187
CD106/VCAM-1 (LPS Huvec+PBMC, 1.23E2 nM): 0.093
CD141/Thrombomodulin (LPS Huvec+PBMC, 1.23E2 nM): 0.087
CD142/Tissue Factor (LPS Huvec+PBMC, 1.23E2 nM): 0.139
CXCL8/IL-8 (LPS Huvec+PBMC, 1.23E2 nM): -0.075
IL-1alpha (LPS Huvec+PBMC, 1.23E2 nM): 0.044
M-CSF (LPS Huvec+PBMC, 1.23E2 nM): -0.000401
SRB (LPS Huvec+PBMC, 1.23E2 nM): -0.089
sPGE2 (LPS Huvec+PBMC, 1.23E2 nM): 0.245
sTNF-alpha (LPS Huvec+PBMC, 1.23E2 nM): 0.048
CCL2/MCP-1 (LPS Huvec+PBMC, 1.37E1 nM): 0.005
CD40 (LPS Huvec+PBMC, 1.37E1 nM): -0.187
CD62E/E-Selectin (LPS Huvec+PBMC, 1.37E1 nM): -0.020
CD69 (LPS Huvec+PBMC, 1.37E1 nM): -0.009
CD106/VCAM-1 (LPS Huvec+PBMC, 1.37E1 nM): 0.066
CD141/Thrombomodulin (LPS Huvec+PBMC, 1.37E1 nM): 0.056
CD142/Tissue Factor (LPS Huvec+PBMC, 1.37E1 nM): 0.073
CXCL8/IL-8 (LPS Huvec+PBMC, 1.37E1 nM): -0.037
IL-1alpha (LPS Huvec+PBMC, 1.37E1 nM): -0.072
M-CSF (LPS Huvec+PBMC, 1.37E1 nM): 0.00323
SRB (LPS Huvec+PBMC, 1.37E1 nM): -0.040
sPGE2 (LPS Huvec+PBMC, 1.37E1 nM): 0.171
sTNF-alpha (LPS Huvec+PBMC, 1.37E1 nM): 0.038
CCL2/MCP-1 (LPS Huvec+PBMC, 3.33E3 nM): -0.067
CD40 (LPS Huvec+PBMC, 3.33E3 nM): -0.112
CD62E/E-Selectin (LPS Huvec+PBMC, 3.33E3 nM): 0.00461
CD69 (LPS Huvec+PBMC, 3.33E3 nM): 0.059
CD106/VCAM-1 (LPS Huvec+PBMC, 3.33E3 nM): 0.096
CD141/Thrombomodulin (LPS Huvec+PBMC, 3.33E3 nM): 0.075
CD142/Tissue Factor (LPS Huvec+PBMC, 3.33E3 nM): 0.108
CXCL8/IL-8 (LPS Huvec+PBMC, 3.33E3 nM): -0.193
IL-1alpha (LPS Huvec+PBMC, 3.33E3 nM): 0.066
M-CSF (LPS Huvec+PBMC, 3.33E3 nM): 0.023
SRB (LPS Huvec+PBMC, 3.33E3 nM): -0.130
sPGE2 (LPS Huvec+PBMC, 3.33E3 nM): 0.179
sTNF-alpha (LPS Huvec+PBMC, 3.33E3 nM): 0.057
CCL2/MCP-1 (LPS Huvec+PBMC, 3.70E2 nM): -0.029
CD40 (LPS Huvec+PBMC, 3.70E2 nM): -0.162
CD62E/E-Selectin (LPS Huvec+PBMC, 3.70E2 nM): -0.010
CD69 (LPS Huvec+PBMC, 3.70E2 nM): 0.00559
CD106/VCAM-1 (LPS Huvec+PBMC, 3.70E2 nM): 0.093
CD141/Thrombomodulin (LPS Huvec+PBMC, 3.70E2 nM): 0.092
CD142/Tissue Factor (LPS Huvec+PBMC, 3.70E2 nM): 0.144
CXCL8/IL-8 (LPS Huvec+PBMC, 3.70E2 nM): -0.137
IL-1alpha (LPS Huvec+PBMC, 3.70E2 nM): 0.044
M-CSF (LPS Huvec+PBMC, 3.70E2 nM): -0.012
SRB (LPS Huvec+PBMC, 3.70E2 nM): -0.096
sPGE2 (LPS Huvec+PBMC, 3.70E2 nM): 0.189
sTNF-alpha (LPS Huvec+PBMC, 3.70E2 nM): 0.099
CCL2/MCP-1 (LPS Huvec+PBMC, 4.12E1 nM): -0.00282
CD40 (LPS Huvec+PBMC, 4.12E1 nM): -0.180
CD62E/E-Selectin (LPS Huvec+PBMC, 4.12E1 nM): -0.032
CD69 (LPS Huvec+PBMC, 4.12E1 nM): 0.017
CD106/VCAM-1 (LPS Huvec+PBMC, 4.12E1 nM): 0.090
CD141/Thrombomodulin (LPS Huvec+PBMC, 4.12E1 nM): 0.090
CD142/Tissue Factor (LPS Huvec+PBMC, 4.12E1 nM): 0.115
CXCL8/IL-8 (LPS Huvec+PBMC, 4.12E1 nM): -0.044
IL-1alpha (LPS Huvec+PBMC, 4.12E1 nM): 0.017
M-CSF (LPS Huvec+PBMC, 4.12E1 nM): -0.0023
SRB (LPS Huvec+PBMC, 4.12E1 nM): -0.053
sPGE2 (LPS Huvec+PBMC, 4.12E1 nM): 0.230
sTNF-alpha (LPS Huvec+PBMC, 4.12E1 nM): 0.081
CCL2/MCP-1 (LPS Huvec+PBMC, 4.57E0 nM): -0.00276
CD40 (LPS Huvec+PBMC, 4.57E0 nM): -0.174
CD62E/E-Selectin (LPS Huvec+PBMC, 4.57E0 nM): -0.017
CD69 (LPS Huvec+PBMC, 4.57E0 nM): 0.019
CD106/VCAM-1 (LPS Huvec+PBMC, 4.57E0 nM): 0.051
CD141/Thrombomodulin (LPS Huvec+PBMC, 4.57E0 nM): 0.058
CD142/Tissue Factor (LPS Huvec+PBMC, 4.57E0 nM): 0.062
CXCL8/IL-8 (LPS Huvec+PBMC, 4.57E0 nM): -0.024
IL-1alpha (LPS Huvec+PBMC, 4.57E0 nM): -0.00758
M-CSF (LPS Huvec+PBMC, 4.57E0 nM): -0.005
SRB (LPS Huvec+PBMC, 4.57E0 nM): -0.016
sPGE2 (LPS Huvec+PBMC, 4.57E0 nM): 0.124
sTNF-alpha (LPS Huvec+PBMC, 4.57E0 nM): -0.057
CCL2/MCP-1 (SAg, 1.00E4 nM): -0.077
CD38 (SAg, 1.00E4 nM): -0.031
CD40 (SAg, 1.00E4 nM): -0.104
CD62E/E-Selectin (SAg, 1.00E4 nM): 0.099
CD69 (SAg, 1.00E4 nM): 0.140
CXCL8/IL-8 (SAg, 1.00E4 nM): -0.277
CXCL9/MIG (SAg, 1.00E4 nM): -0.047
PBMC Cytotoxicity (SAg, 1.00E4 nM): 0.013
Proliferation (SAg, 1.00E4 nM): -0.003
SRB (SAg, 1.00E4 nM): -0.133
CCL2/MCP-1 (SAg, 1.11E3 nM): -0.125
CD38 (SAg, 1.11E3 nM): -0.063
CD40 (SAg, 1.11E3 nM): -0.103
CD62E/E-Selectin (SAg, 1.11E3 nM): 0.135
CD69 (SAg, 1.11E3 nM): 0.166
CXCL8/IL-8 (SAg, 1.11E3 nM): -0.272
CXCL9/MIG (SAg, 1.11E3 nM): -0.097
PBMC Cytotoxicity (SAg, 1.11E3 nM): 0.007
Proliferation (SAg, 1.11E3 nM): -0.000932
SRB (SAg, 1.11E3 nM): -0.168
CCL2/MCP-1 (SAg, 1.23E2 nM): -0.092
CD38 (SAg, 1.23E2 nM): -0.087
CD40 (SAg, 1.23E2 nM): -0.136
CD62E/E-Selectin (SAg, 1.23E2 nM): 0.130
CD69 (SAg, 1.23E2 nM): 0.140
CXCL8/IL-8 (SAg, 1.23E2 nM): -0.108
CXCL9/MIG (SAg, 1.23E2 nM): -0.076
PBMC Cytotoxicity (SAg, 1.23E2 nM): -0.032
Proliferation (SAg, 1.23E2 nM): 0.030
SRB (SAg, 1.23E2 nM): -0.149
CCL2/MCP-1 (SAg, 1.37E1 nM): -0.019
CD38 (SAg, 1.37E1 nM): -0.064
CD40 (SAg, 1.37E1 nM): -0.117
CD62E/E-Selectin (SAg, 1.37E1 nM): 0.101
CD69 (SAg, 1.37E1 nM): 0.100
CXCL8/IL-8 (SAg, 1.37E1 nM): -0.060
CXCL9/MIG (SAg, 1.37E1 nM): -0.029
PBMC Cytotoxicity (SAg, 1.37E1 nM): 0.005
Proliferation (SAg, 1.37E1 nM): -0.021
SRB (SAg, 1.37E1 nM): -0.058
CCL2/MCP-1 (SAg, 3.33E3 nM): -0.104
CD38 (SAg, 3.33E3 nM): -0.056
CD40 (SAg, 3.33E3 nM): -0.138
CD62E/E-Selectin (SAg, 3.33E3 nM): 0.125
CD69 (SAg, 3.33E3 nM): 0.148
CXCL8/IL-8 (SAg, 3.33E3 nM): -0.259
CXCL9/MIG (SAg, 3.33E3 nM): -0.085
PBMC Cytotoxicity (SAg, 3.33E3 nM): -0.00278
Proliferation (SAg, 3.33E3 nM): -0.016
SRB (SAg, 3.33E3 nM): -0.179
CCL2/MCP-1 (SAg, 3.70E2 nM): -0.123
CD38 (SAg, 3.70E2 nM): -0.080
CD40 (SAg, 3.70E2 nM): -0.137
CD62E/E-Selectin (SAg, 3.70E2 nM): 0.119
CD69 (SAg, 3.70E2 nM): 0.128
CXCL8/IL-8 (SAg, 3.70E2 nM): -0.284
CXCL9/MIG (SAg, 3.70E2 nM): -0.085
PBMC Cytotoxicity (SAg, 3.70E2 nM): -0.040
Proliferation (SAg, 3.70E2 nM): -0.011
SRB (SAg, 3.70E2 nM): -0.146
CCL2/MCP-1 (SAg, 4.12E1 nM): -0.056
CD38 (SAg, 4.12E1 nM): -0.062
CD40 (SAg, 4.12E1 nM): -0.124
CD62E/E-Selectin (SAg, 4.12E1 nM): 0.124
CD69 (SAg, 4.12E1 nM): 0.126
CXCL8/IL-8 (SAg, 4.12E1 nM): -0.119
CXCL9/MIG (SAg, 4.12E1 nM): -0.046
PBMC Cytotoxicity (SAg, 4.12E1 nM): -0.001
Proliferation (SAg, 4.12E1 nM): 0.000938
SRB (SAg, 4.12E1 nM): -0.102
CCL2/MCP-1 (SAg, 4.57E0 nM): 0.040
CD38 (SAg, 4.57E0 nM): -0.052
CD40 (SAg, 4.57E0 nM): -0.084
CD62E/E-Selectin (SAg, 4.57E0 nM): 0.070
CD69 (SAg, 4.57E0 nM): 0.062
CXCL8/IL-8 (SAg, 4.57E0 nM): 0.007
CXCL9/MIG (SAg, 4.57E0 nM): -0.031
PBMC Cytotoxicity (SAg, 4.57E0 nM): 0.015
Proliferation (SAg, 4.57E0 nM): 0.009
SRB (SAg, 4.57E0 nM): 0.029
